From PubChem BioAssay AID1919005 (Molecular Pharmacology Branch, DTP, NCI, 2023)

Test system: 855422-203-R-J1-PDC complex spheroid growth
Test: Anticancer human tumor 855422-203-R-J1-PDC patient-derived bladder carcinoma cell line growth inhibition [AhR]
Conditions: for IC50: curve of first compound; for viability, T/C: stronger effect = lower value
Summary of the method: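 Spheroids combined tumor cells with HUVEC endothelial cells and human MSCs as stroma. AhR antagonists were paired with standard or investigational drugs, each dosed in half-log steps down from near clinical Cmax, or from 10 microM where Cmax was unknown.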

[1] = second compound 0.1 µM, first compound 0.0316 µM
[2] = second compound 0.1 µM, first compound 0.1 µM
[3] = second compound 0.1 µM, first compound 0.316 µM
[4] = second compound 0.1 µM, first compound 1 µM
[5] = second compound 0.1 µM, first compound 3.16 µM
[6] = second compound 0.1 µM, first compound 10 µM
[7] = second compound 0.316 µM, first compound 0.0316 µM
[8] = second compound 0.316 µM, first compound 0.1 µM
[9] = second compound 0.316 µM, first compound 0.316 µM
[10] = second compound 0.316 µM, first compound 1 µM
[11] = second compound 0.316 µM, first compound 3.16 µM
[12] = second compound 0.316 µM, first compound 10 µM
[13] = second compound 1 µM, first compound 0.0316 µM
[14] = second compound 1 µM, first compound 0.1 µM
[15] = second compound 1 µM, first compound 0.316 µM
[16] = second compound 1 µM, first compound 1 µM
[17] = second compound 1 µM, first compound 3.16 µM
[18] = second compound 1 µM, first compound 10 µM
[19] = second compound 3.16 µM, first compound 0.0316 µM
[20] = second compound 3.16 µM, first compound 0.1 µM
[21] = second compound 3.16 µM, first compound 0.316 µM
[22] = second compound 3.16 µM, first compound 1 µM
[23] = second compound 3.16 µM, first compound 3.16 µM
[24] = second compound 3.16 µM, first compound 10 µM
[25] = second compound 10 µM, first compound 0.0316 µM
[26] = second compound 10 µM, first compound 0.1 µM
[27] = second compound 10 µM, first compound 0.316 µM
[28] = second compound 10 µM, first compound 1 µM
[29] = second compound 10 µM, first compound 3.16 µM
[30] = second compound 10 µM, first compound 10 µM
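Note: spheroids exposed to agents for seven days before readout.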
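Throughout, for viability, T/C: percent of DMSO vehicle control luminescence viability.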

Nc1ncn(C2CC(O)C(CO)S2)c(=O)n1 (stereo not given) + Cc1cncc(-c2nc(NCCc3c[nH]c4ccccc34)c3ncn(C(C)C)c3n2)c1
IC50 (second compound 0.1 µM): > 300 nM
IC50 (second compound 0.316 µM): > 300 nM
IC50 (second compound 1 µM): > 300 nM
IC50 (second compound 3.16 µM): 1.28 nM
IC50 (second compound 10 µM): < 0.949 nM
viability, T/C (second compound 0.1 µM, first compound 0.000949 µM): 92.3%
viability, T/C (second compound 0.1 µM, first compound 0.003 µM): 101%
viability, T/C (second compound 0.1 µM, first compound 0.00949 µM): 92.9%
viability, T/C (second compound 0.1 µM, first compound 0.03 µM): 90.4%
viability, T/C (second compound 0.1 µM, first compound 0.0949 µM): 84.7%
viability, T/C (second compound 0.1 µM, first compound 0.3 µM): 72.2%
viability, T/C (second compound 0.316 µM, first compound 0.000949 µM): 90.1%
viability, T/C (second compound 0.316 µM, first compound 0.003 µM): 83.8%
viability, T/C (second compound 0.316 µM, first compound 0.00949 µM): 77.4%
viability, T/C (second compound 0.316 µM, first compound 0.03 µM): 85%
viability, T/C (second compound 0.316 µM, first compound 0.0949 µM): 78.2%
viability, T/C (second compound 0.316 µM, first compound 0.3 µM): 69.8%
viability, T/C (second compound 1 µM, first compound 0.000949 µM): 74.1%
viability, T/C (second compound 1 µM, first compound 0.003 µM): 88.2%
viability, T/C (second compound 1 µM, first compound 0.00949 µM): 77.3%
viability, T/C (second compound 1 µM, first compound 0.03 µM): 73.6%
viability, T/C (second compound 1 µM, first compound 0.0949 µM): 79.1%
viability, T/C (second compound 1 µM, first compound 0.3 µM): 77.1%
viability, T/C (second compound 3.16 µM, first compound 0.000949 µM): 49.1%
viability, T/C (second compound 3.16 µM, first compound 0.003 µM): 51.8%
viability, T/C (second compound 3.16 µM, first compound 0.00949 µM): 41.9%
viability, T/C (second compound 3.16 µM, first compound 0.03 µM): 25.1%
viability, T/C (second compound 3.16 µM, first compound 0.0949 µM): 42%
viability, T/C (second compound 3.16 µM, first compound 0.3 µM): 37.5%
viability, T/C (second compound 10 µM, first compound 0.000949 µM): 28.3%
viability, T/C (second compound 10 µM, first compound 0.003 µM): 26.9%
viability, T/C (second compound 10 µM, first compound 0.00949 µM): 19.7%
viability, T/C (second compound 10 µM, first compound 0.03 µM): 15.5%
viability, T/C (second compound 10 µM, first compound 0.0949 µM): 22.8%
viability, T/C (second compound 10 µM, first compound 0.3 µM): 24.3%

COc1cc(C2c3cc4c(cc3C(OC3OC5COC(C)OC5C(O)C3O)C3COC(=O)C23)OCO4)cc(OC)c1O (stereo not given) + Cc1ccccc1N=Nc1ccc(NC(=O)c2ccnn2C)c(C)c1
IC50 (second compound 0.1 µM): 468 nM
IC50 (second compound 0.316 µM): 463 nM
IC50 (second compound 1 µM): 505 nM
IC50 (second compound 3.16 µM): 434 nM
IC50 (second compound 10 µM): 368 nM
viability, T/C [1]: 96.5%
viability, T/C [2]: 93.2%
viability, T/C [3]: 60.8%
viability, T/C [4]: 26.7%
viability, T/C [5]: 15.2%
viability, T/C [6]: 7.04%
viability, T/C [7]: 93.7%
viability, T/C [8]: 96.6%
viability, T/C [9]: 61%
viability, T/C [10]: 24.6%
viability, T/C [11]: 14.8%
viability, T/C [12]: 6.03%
viability, T/C [13]: 98.8%
viability, T/C [14]: 95.7%
viability, T/C [15]: 65%
viability, T/C [16]: 26.5%
viability, T/C [17]: 15.9%
viability, T/C [18]: 6.19%
viability, T/C [19]: 82.9%
viability, T/C [20]: 83.9%
viability, T/C [21]: 58.1%
viability, T/C [22]: 25.3%
viability, T/C [23]: 12.4%
viability, T/C [24]: 5.67%
viability, T/C [25]: 83%
viability, T/C [26]: 82.8%
viability, T/C [27]: 48.3%
viability, T/C [28]: 29.8%
viability, T/C [29]: 13.7%
viability, T/C [30]: 7.06%

NS(=O)(=O)OCC1CC(n2ccc3c(NC4CCc5ccccc54)ncnc32)CC1O (stereo not given) + Cc1ccccc1N=Nc1ccc(NC(=O)c2ccnn2C)c(C)c1
IC50 (second compound 0.1 µM): 3020 nM
IC50 (second compound 0.316 µM): 2530 nM
IC50 (second compound 1 µM): 1970 nM
IC50 (second compound 3.16 µM): 1030 nM
IC50 (second compound 10 µM): 484 nM
viability, T/C [1]: 104%
viability, T/C [2]: 110%
viability, T/C [3]: 124%
viability, T/C [4]: 98.5%
viability, T/C [5]: 48.5%
viability, T/C [6]: 16.3%
viability, T/C [7]: 102%
viability, T/C [8]: 113%
viability, T/C [9]: 120%
viability, T/C [10]: 90.3%
viability, T/C [11]: 40.9%
viability, T/C [12]: 16.5%
viability, T/C [13]: 101%
viability, T/C [14]: 115%
viability, T/C [15]: 109%
viability, T/C [16]: 77.7%
viability, T/C [17]: 31.1%
viability, T/C [18]: 15.3%
viability, T/C [19]: 105%
viability, T/C [20]: 110%
viability, T/C [21]: 78.8%
viability, T/C [22]: 54.2%
viability, T/C [23]: 20.7%
viability, T/C [24]: 12%
viability, T/C [25]: 73.8%
viability, T/C [26]: 80.2%
viability, T/C [27]: 56.5%
viability, T/C [28]: 35.2%
viability, T/C [29]: 13.6%
viability, T/C [30]: 12.1%

NS(=O)(=O)OCC1CC(n2ccc3c(NC4CCc5ccccc54)ncnc32)CC1O (stereo not given) + CC(CO)NC(=O)c1cc(-c2ccc(Cl)cc2)nn(-c2cnn(C)c2)c1=O
IC50 (second compound 0.1 µM): 855 nM
IC50 (second compound 0.316 µM): 795 nM
IC50 (second compound 1 µM): 699 nM
IC50 (second compound 3.16 µM): 524 nM
IC50 (second compound 10 µM): 470 nM
viability, T/C [1]: 99.8%
viability, T/C [2]: 117%
viability, T/C [3]: 93%
viability, T/C [4]: 43.2%
viability, T/C [5]: 15.3%
viability, T/C [6]: 10.1%
viability, T/C [7]: 90.5%
viability, T/C [8]: 109%
viability, T/C [9]: 84.4%
viability, T/C [10]: 41.5%
viability, T/C [11]: 12.4%
viability, T/C [12]: 7.98%
viability, T/C [13]: 104%
viability, T/C [14]: 102%
viability, T/C [15]: 85.4%
viability, T/C [16]: 34.1%
viability, T/C [17]: 11.4%
viability, T/C [18]: 9.77%
viability, T/C [19]: 87%
viability, T/C [20]: 97.9%
viability, T/C [21]: 61.9%
viability, T/C [22]: 31.9%
viability, T/C [23]: 9.85%
viability, T/C [24]: 8.37%
viability, T/C [25]: 87.6%
viability, T/C [26]: 82.8%
viability, T/C [27]: 53.5%
viability, T/C [28]: 38.6%
viability, T/C [29]: 11.7%
viability, T/C [30]: 8.14%

CC1(C)CCC(CN2CCN(c3ccc(C(=O)NS(=O)(=O)c4ccc(NCC5CCOCC5)c([N+](=O)[O-])c4)c(Oc4cnc5[nH]ccc5c4)c3)CC2)=C(c2ccc(Cl)cc2)C1 + CC(CO)NC(=O)c1cc(-c2ccc(Cl)cc2)nn(-c2cnn(C)c2)c1=O
IC50 (second compound 0.1 µM): 6140 nM
IC50 (second compound 0.316 µM): 6190 nM
IC50 (second compound 1 µM): 6300 nM
IC50 (second compound 3.16 µM): 6250 nM
IC50 (second compound 10 µM): 5940 nM
viability, T/C [1]: 104%
viability, T/C [2]: 100%
viability, T/C [3]: 110%
viability, T/C [4]: 97.8%
viability, T/C [5]: 102%
viability, T/C [6]: 11.8%
viability, T/C [7]: 97.3%
viability, T/C [8]: 96.9%
viability, T/C [9]: 109%
viability, T/C [10]: 100%
viability, T/C [11]: 109%
viability, T/C [12]: 12.3%
viability, T/C [13]: 101%
viability, T/C [14]: 103%
viability, T/C [15]: 103%
viability, T/C [16]: 109%
viability, T/C [17]: 106%
viability, T/C [18]: 13.2%
viability, T/C [19]: 104%
viability, T/C [20]: 111%
viability, T/C [21]: 108%
viability, T/C [22]: 103%
viability, T/C [23]: 105%
viability, T/C [24]: 12.3%
viability, T/C [25]: 94.8%
viability, T/C [26]: 104%
viability, T/C [27]: 88.3%
viability, T/C [28]: 101%
viability, T/C [29]: 93.9%
viability, T/C [30]: 13.7%

O=C(c1cc(Cc2n[nH]c(=O)c3ccccc23)ccc1F)N1CCN(C(=O)C2CC2)CC1 + CC(CO)NC(=O)c1cc(-c2ccc(Cl)cc2)nn(-c2cnn(C)c2)c1=O
IC50 (second compound 0.1 µM): > 10000 nM
IC50 (second compound 0.316 µM): > 10000 nM
IC50 (second compound 1 µM): > 10000 nM
IC50 (second compound 3.16 µM): > 10000 nM
IC50 (second compound 10 µM): > 10000 nM
viability, T/C [1]: 105%
viability, T/C [2]: 107%
viability, T/C [3]: 117%
viability, T/C [4]: 110%
viability, T/C [5]: 98.8%
viability, T/C [6]: 95.2%
viability, T/C [7]: 118%
viability, T/C [8]: 107%
viability, T/C [9]: 110%
viability, T/C [10]: 106%
viability, T/C [11]: 105%
viability, T/C [12]: 97.9%
viability, T/C [13]: 120%
viability, T/C [14]: 115%
viability, T/C [15]: 115%
viability, T/C [16]: 108%
viability, T/C [17]: 113%
viability, T/C [18]: 101%
viability, T/C [19]: 107%
viability, T/C [20]: 112%
viability, T/C [21]: 105%
viability, T/C [22]: 105%
viability, T/C [23]: 96.9%
viability, T/C [24]: 106%
viability, T/C [25]: 109%
viability, T/C [26]: 115%
viability, T/C [27]: 98%
viability, T/C [28]: 97.1%
viability, T/C [29]: 105%
viability, T/C [30]: 102%
